According to the NIST ThermoML archive (doi:10.1021/je060271a):
± gives the expanded uncertainty stated by the source.

Conditions: 343.15 K, Liquid, Vibrating tube method

CCCCC(=O)OCC(COC(=O)CCCC)(COC(=O)CCCC)COC(=O)CCCC [pentaerythritol tetrapentanoate]
Conditions | mass density [kg/m3]
12882 kPa | 988.2 ± 1.2
12909 kPa | 988.3 ± 1.2
12937 kPa | 988.2 ± 1.2
12964 kPa | 988.3 ± 1.2
12996 kPa | 988.3 ± 1.2
13022 kPa | 988.5 ± 1.2
13049 kPa | 988.3 ± 1.2
13082 kPa | 988.4 ± 1.2
13109 kPa | 988.3 ± 1.2
13137 kPa | 988.5 ± 1.2
13164 kPa | 988.4 ± 1.2
13198 kPa | 988.5 ± 1.2
13226 kPa | 988.4 ± 1.2
13254 kPa | 988.4 ± 1.2
13287 kPa | 988.5 ± 1.2
13318 kPa | 988.6 ± 1.2
13346 kPa | 988.6 ± 1.2
13374 kPa | 988.6 ± 1.2
13408 kPa | 988.7 ± 1.2
13437 kPa | 988.6 ± 1.2
13466 kPa | 988.7 ± 1.2
13495 kPa | 988.7 ± 1.2
13530 kPa | 988.7 ± 1.2
13559 kPa | 988.7 ± 1.2
13594 kPa | 988.8 ± 1.2
13624 kPa | 988.8 ± 1.2
13653 kPa | 988.9 ± 1.2
13683 kPa | 988.8 ± 1.2
13719 kPa | 988.9 ± 1.2
13750 kPa | 989 ± 1.2
13780 kPa | 989 ± 1.2
13816 kPa | 989 ± 1.2
13847 kPa | 989 ± 1.2
13877 kPa | 989.1 ± 1.2
13914 kPa | 988.9 ± 1.2
13945 kPa | 989.2 ± 1.2
13976 kPa | 989 ± 1.2
14014 kPa | 989.2 ± 1.2
14045 kPa | 989.2 ± 1.2
14077 kPa | 989.2 ± 1.2
14110 kPa | 989.1 ± 1.2
14149 kPa | 989.1 ± 1.2
14181 kPa | 989.1 ± 1.2
14213 kPa | 989.3 ± 1.2
14252 kPa | 989.2 ± 1.2
14284 kPa | 989.4 ± 1.2
14318 kPa | 989.2 ± 1.2
14350 kPa | 989.3 ± 1.2
14390 kPa | 989.6 ± 1.2
14423 kPa | 989.4 ± 1.2
14457 kPa | 989.4 ± 1.2
14497 kPa | 989.5 ± 1.2
14531 kPa | 989.5 ± 1.2
14566 kPa | 989.5 ± 1.2
14607 kPa | 989.5 ± 1.2
14641 kPa | 989.7 ± 1.2
14676 kPa | 989.6 ± 1.2
14717 kPa | 989.7 ± 1.2
14752 kPa | 989.7 ± 1.2
14787 kPa | 989.7 ± 1.2
14829 kPa | 989.7 ± 1.2
14864 kPa | 989.6 ± 1.2
14900 kPa | 989.8 ± 1.2
14943 kPa | 989.7 ± 1.2
14979 kPa | 989.8 ± 1.2
15016 kPa | 989.9 ± 1.2
15053 kPa | 989.8 ± 1.2
15097 kPa | 989.9 ± 1.2
15134 kPa | 989.8 ± 1.2
15171 kPa | 989.9 ± 1.2
15214 kPa | 989.9 ± 1.2
15252 kPa | 990.1 ± 1.2
15289 kPa | 989.9 ± 1.2
15334 kPa | 990 ± 1.2
15372 kPa | 990 ± 1.2
15411 kPa | 990.2 ± 1.2
15458 kPa | 990.1 ± 1.2
15497 kPa | 990.1 ± 1.2
15537 kPa | 990.3 ± 1.2
15578 kPa | 990.2 ± 1.2
15628 kPa | 990.3 ± 1.2
15668 kPa | 990.3 ± 1.2
15704 kPa | 990.5 ± 1.2
15742 kPa | 990.3 ± 1.2
15774 kPa | 990.4 ± 1.2
15806 kPa | 990.4 ± 1.2
15845 kPa | 990.4 ± 1.2
15877 kPa | 990.6 ± 1.2
15910 kPa | 990.4 ± 1.2
15950 kPa | 990.4 ± 1.2
15982 kPa | 990.5 ± 1.2
16016 kPa | 990.5 ± 1.2
16052 kPa | 990.6 ± 1.2
16091 kPa | 990.6 ± 1.2
16125 kPa | 990.7 ± 1.2
16159 kPa | 990.6 ± 1.2
16199 kPa | 990.8 ± 1.2
16233 kPa | 990.7 ± 1.2
16268 kPa | 990.8 ± 1.2
16302 kPa | 990.8 ± 1.2
16344 kPa | 990.7 ± 1.2
16378 kPa | 990.9 ± 1.2
16413 kPa | 990.8 ± 1.2
16456 kPa | 990.9 ± 1.2
16493 kPa | 991 ± 1.2
16530 kPa | 991 ± 1.2
16566 kPa | 991 ± 1.2
16602 kPa | 991 ± 1.2
16644 kPa | 990.9 ± 1.2
16680 kPa | 991 ± 1.2
16724 kPa | 991.1 ± 1.2
16760 kPa | 991.1 ± 1.2
16796 kPa | 991.1 ± 1.2
16841 kPa | 991.2 ± 1.2
16878 kPa | 991.1 ± 1.2
16915 kPa | 991.1 ± 1.2
16959 kPa | 991.1 ± 1.2
16997 kPa | 991.2 ± 1.2
17035 kPa | 991.2 ± 1.2
17081 kPa | 991.3 ± 1.2
17119 kPa | 991.3 ± 1.2
17158 kPa | 991.3 ± 1.2
17204 kPa | 991.4 ± 1.2
17243 kPa | 991.4 ± 1.2
17282 kPa | 991.4 ± 1.2
17330 kPa | 991.6 ± 1.2
17371 kPa | 991.5 ± 1.2
17412 kPa | 991.6 ± 1.2
17462 kPa | 991.6 ± 1.2
17500 kPa | 991.5 ± 1.2
17533 kPa | 991.6 ± 1.2
17569 kPa | 991.6 ± 1.2
17600 kPa | 991.6 ± 1.2
17630 kPa | 991.5 ± 1.2
17666 kPa | 991.6 ± 1.2
17697 kPa | 991.7 ± 1.2
17728 kPa | 991.8 ± 1.2
17765 kPa | 991.9 ± 1.2
17796 kPa | 991.9 ± 1.2
17827 kPa | 991.7 ± 1.2
17864 kPa | 991.9 ± 1.2
17896 kPa | 991.9 ± 1.2
17928 kPa | 991.9 ± 1.2
17966 kPa | 991.9 ± 1.2
17998 kPa | 991.8 ± 1.2
18030 kPa | 992 ± 1.2
18068 kPa | 992 ± 1.2
18100 kPa | 992.1 ± 1.2
18132 kPa | 992 ± 1.2
18171 kPa | 991.9 ± 1.2
18204 kPa | 992.2 ± 1.2
18236 kPa | 992 ± 1.2
18276 kPa | 992.1 ± 1.2
18309 kPa | 992.1 ± 1.2
18342 kPa | 992.1 ± 1.2
18382 kPa | 992.2 ± 1.2
18416 kPa | 992.2 ± 1.2
18450 kPa | 992.1 ± 1.2
18490 kPa | 992.3 ± 1.2
18524 kPa | 992.4 ± 1.2
